Test results as given in US5843758A, “Enzyme based bioremediation” (priority 1994, dated 1998).
Numbering of substitutions follows the chain as printed.

What was measured:
[1] = target: T1, Lucilia cuprina LcαE7 (E3) esterase, OP resistant allele, clone Lc7L103D (Gly to Asp at amino acid position 137) (Lucilia cuprina, UniProt Q25252, form not given/G137D); assay: Radiometric partition assay for OP hydrolysis, enzyme expressed in vitro (baculovirus/Sf9); assay type: biochemical
T1 sequence (Q25252 1-570 G137D): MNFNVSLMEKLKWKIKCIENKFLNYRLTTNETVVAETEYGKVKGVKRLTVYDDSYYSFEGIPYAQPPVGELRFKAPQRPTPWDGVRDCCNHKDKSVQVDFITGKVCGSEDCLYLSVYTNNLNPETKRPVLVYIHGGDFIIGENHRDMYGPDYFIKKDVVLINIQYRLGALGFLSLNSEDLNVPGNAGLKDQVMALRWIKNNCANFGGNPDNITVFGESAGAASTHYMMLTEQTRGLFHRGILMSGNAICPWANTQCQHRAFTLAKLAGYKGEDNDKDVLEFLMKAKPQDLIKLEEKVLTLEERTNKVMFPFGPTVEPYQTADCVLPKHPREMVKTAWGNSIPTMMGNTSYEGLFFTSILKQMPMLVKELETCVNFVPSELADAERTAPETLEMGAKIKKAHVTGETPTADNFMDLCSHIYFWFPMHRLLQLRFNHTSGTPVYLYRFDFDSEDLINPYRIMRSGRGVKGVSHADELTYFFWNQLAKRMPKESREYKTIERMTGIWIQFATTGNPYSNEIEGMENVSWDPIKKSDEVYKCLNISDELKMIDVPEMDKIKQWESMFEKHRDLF
Experimental: (§1) The susceptible (clone Lc743) and resistant (clone Lc7L103D) alleles of LcαE7 were cloned into the baculovirus transfer vector, Bacpac 8 (Clonetech), 3' of the polyhedrin promoter. Transfections were conducted using a lipofection method with polybrene (Sigma) according to King, L. A. & Possee, R. D. (The Baculovirus Expression System: A Laboratory Guide, Chapman & Hall, London, 1992). One μg of DNA of each of the resulting constructs together with 200 ng of Bacpac 6 baculovirus DNA (Clonetech), linearised by digestion with the restriction enzyme BSU 36I (Progema), was incubated in a solution of hepes buffered saline containing 0.5% polybrene (Sigma) at room temperature for 10 minutes. The solution was then used to transfect a single well of a six well tissue culture plate pre-seeded 2 hr previously with 10^4 Sf9 (Spodoptera frugiperda) cells in 1.5 ml Grace's medium (King, L. A. & Possee, R. D, The Baculovirus Expression System: A Laboratory Guide, Chapman & Hall, London, 1992). After 12 hr, the medium was removed, made up to 10% DMSO and placed back over the cells for 5 minutes. This was then replaced with 3 ml of Grace's medium containing 10% fetal calf serum. Construct plus polybrene, linearised virus plus polybrene and polybrene only controls were conducted in parallel with transfections. […]

[2] = system: CFVP hydrolysing enzyme (E3 esterase) in homogenate of OP-resistant L. cuprina strain RM2-6 [der-S]; assay: Radiometric partition assay for OP hydrolysis, whole-fly homogenate; assay type: biochemical, Lucilia cuprina; details: preliminary kinetic experiments
Experimental: Enzyme samples were diluted in 0.1M imidazole-HCl buffer pH 7.0 ("imidazole buffer") to a final volume of 25 μl. Reactions were started by the addition of 25 μl of [^14 C-ethyl]-chlorfenvinphos (CFVP, 306.5 MBq/mmole, Internationale Isotope Munchen) diluted in imidazole buffer from a 7.5 mM stock solution in ethanol. The final chlorfenvinphos concentration was typically 50 or 75 μM for routine assays but can be much lower for the determination of kinetic parameters. The reaction was incubated at 30° C. and stopped by the addition of 300 μl dichloromethane and 150 µl of imidazole buffer containing 10 μM diethylphosphate (Eastman Kodak) followed by vigourous vortex mixing. The reactions were centrifuged to separate phases and 150 μl of the upper, aqueous phase was taken for scintillation counting to determine the amount of ^14 C-diethylphosphate produced by hydrolysis of CFVP. Incubations with boiled enzyme were also performed to control for non-enzymic hydrolysis of CFVP.
(i) Whole-fly homogenates: Assays were carried out on whole-fly homogenates using 50 μM CFVP. […] The boiled control hydrolysed CFVP at a rate of 0.48 pmol/min/mg protein. Homogenates derived from an OP-susceptible strain (LS2) hydrolysed CFVP at the same rate as the boiled control, indicating the absence of CFVP hydrolytic enzymic activity in OP-susceptible L. cuprina.

[3] = target: T2, Lucilia cuprina LcαE7 (E3) esterase, OP susceptible allele, clone Lc743 (printed Lc473), SEQ ID NO:3 (Lucilia cuprina, UniProt Q25252); assay: Malathion hydrolysis / time-dependent inhibition of the enzyme by malathion; assay type: biochemical; details: in the presence of 4 μM malathion; supernatant of cells expressing the OP susceptible allele
T2 sequence (Q25252 1-570): T1 sequence (Q25252 1-570 G137D) with D137G
Experimental: as §1, with “1992).” for “1992). After 12 hr, the medium was removed, made up to 10% DMSO and placed back over the cells for 5 minutes. This was then replaced with 3 ml of Grace's medium containing 10% fetal calf serum. Construct plus polybrene, linearised virus plus polybrene and polybrene only controls were conducted in parallel with transfections.”
Initial rates of malathion hydrolysis by the supernatant of cells expressing the OP susceptible allele, […], was 3.3 pmole/min/μl from an initial concentration of 4 μM malathion. […] Malathion hydrolysis (0.5 pmoles/min/μl) was also detected in the supernatant of cells expressing the D. melanogaster homologue, DmaE7.

SMILES	Km ([1]; cells expressing the Lc7L103D allele, CFVP hydrolysis, imidazole-HCl pH 7.0, 30° C., preliminary kinetic experiments, read-out: Km of the CFVP hydrolysing enzyme) [µM]	Vmax of CFVP hydrolysis ([1]; cells expressing the OP resistant allele Lc7L103D, pH 7.0, 30° C.)	Km ([2]; RM2-6 homogenate, CFVP hydrolysis, pH 7.0, 30° C.) [µM]	Vmax for the hydrolysis of CFVP ([2]; homogenates of the resistant strain)	half-life of enzyme inhibition by malathion [3]
CCOP(=O)(OCC)OC(=CCl)c1ccc(Cl)cc1Cl [CFVP, chlorfenvinphos]	~16	approximately 2.0 nmol/min/mg protein	~16	approximately 13 pmol/min/mg protein	
CCOC(=O)CC(SP(=S)(OC)OC)C(=O)OCC (centres unmarked) [malathion]					about 20 minutes
